Experimental data published in ChEMBL document CHEMBL2396652 (Bioorg Med Chem Lett, 2013).
Calls of active or inactive are those of the source. No cut-off for these calls is given here.

Assays:
Mu-type opioid receptor [1] = biological target: T1, Mu-type opioid receptor (Homo sapiens, UniProt P35372); test: Agonist activity at mu opioid receptor (unknown origin) expressed CHO cells assessed as stimulation of [35S]-GTP[gammaS] binding relative to DAMGO; format: cell-based
Mu-type opioid receptor [2] = biological target: T1, Mu-type opioid receptor; test: Agonist activity at mu opioid receptor (unknown origin) expressed CHO cells assessed as stimulation of [35S]-GTP[gammaS] binding; format: cell-based
Homo sapiens [3] = organism: Homo sapiens; test: Selectivity ratio of Ki for kappa opioid receptor (unknown origin) to Ki for mu opioid receptor (unknown origin)
Homo sapiens [4] = organism: Homo sapiens; test: Selectivity ratio of Ki for delta opioid receptor (unknown origin) to Ki for mu opioid receptor (unknown origin)
Mu-type opioid receptor [5] = biological target: T1, Mu-type opioid receptor; test: Antagonist activity at mu opioid receptor (unknown origin) expressed CHO cells assessed as inhibition of [35S]-GTP[gammaS] binding; format: cell-based
Mu-type opioid receptor [6] = biological target: T1, Mu-type opioid receptor; test: Agonist activity at mu opioid receptor (unknown origin) expressed CHO cells assessed as stimulation of [35S]-GTP[gammaS] binding at 10 uM relative to DAMGO; format: cell-based

T1 sequence (P35372 whole entry): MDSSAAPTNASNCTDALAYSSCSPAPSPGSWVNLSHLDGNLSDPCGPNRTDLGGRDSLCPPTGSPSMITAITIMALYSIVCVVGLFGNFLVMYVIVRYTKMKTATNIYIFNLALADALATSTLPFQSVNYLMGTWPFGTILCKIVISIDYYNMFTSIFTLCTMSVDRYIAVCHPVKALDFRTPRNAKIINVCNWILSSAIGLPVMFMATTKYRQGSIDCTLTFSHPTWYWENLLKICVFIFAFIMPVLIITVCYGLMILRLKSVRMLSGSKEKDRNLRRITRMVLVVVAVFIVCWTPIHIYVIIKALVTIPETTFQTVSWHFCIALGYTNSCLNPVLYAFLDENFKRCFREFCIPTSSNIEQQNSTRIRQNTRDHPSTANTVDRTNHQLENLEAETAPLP

Row | SMILES | Emax (Mu-type opioid receptor [1]) | EC50 (Mu-type opioid receptor [2]) | Ratio Ki (Homo sapiens [3]) | Ratio Ki (Homo sapiens [4]) | inhibition (Mu-type opioid receptor [5]) | Emax (Mu-type opioid receptor [6])
1 | O=C(N[C@@]12CCC(=O)[C@@H]3Oc4c(O)ccc5c4[C@@]31CCN(CC1CC1)[C@@H]2C5)c1ccc2ccccc2c1 | 16.5% | 11.1 nM | 0.05 | 1.7 | – | –
2 | O=C(N[C@@]12CCC(=O)[C@@H]3Oc4c(O)ccc5c4[C@@]31CCN(CC1CC1)[C@@H]2C5)c1cccnc1 | – | – | 0.21 | 53 | Active | 5.09%
3 | COc1cccc2c1[C@]13CCN(CC4CC4)[C@H](C2)[C@]1(OC)CCC(=O)C3 | – | – | 45 | 40 | – | –
4 | O=C(N[C@@]12CCC(=O)[C@@H]3Oc4c(O)ccc5c4[C@@]31CCN(CC1CC1)[C@@H]2C5)c1ccccc1 | 5.79% | 7.2 nM | 0.03 | 13 | – | –
5 | O=C(N[C@@]12CCC(=O)[C@@H]3Oc4c(O)ccc5c4[C@@]31CCN(CC1CC1)[C@@H]2C5)c1cc2ccccc2cn1 | – | – | 0.07 | 7.2 | Active | 2.84%
6 | O=C(N[C@@]12CCC(=O)[C@@H]3Oc4c(O)ccc5c4[C@@]31CCN(CC1CC1)[C@@H]2C5)c1ccc2ccccc2n1 | 34.4% | 38.8 nM | 0.03 | 1.7 | – | –
7 | O=C(N[C@@]12CCC(=O)[C@@H]3Oc4c(O)ccc5c4[C@@]31CCN(CC1CC1)[C@@H]2C5)c1ccncc1 | 7.74% | 1.67 nM | 0.4 | 13 | – | –
8 | O=C(N[C@@]12CCC(=O)[C@@H]3Oc4c(O)ccc5c4[C@@]31CCN(CC1CC1)[C@@H]2C5)c1cnc2ccccc2c1 | 15.8% | 2.81 nM | 0.12 | 1.3 | – | –
9 | O=C(N[C@@]12CCC(=O)[C@@H]3Oc4c(O)ccc5c4[C@@]31CCN(CC1CC1)[C@@H]2C5)c1ccccn1 | – | – | 0.24 | 63 | Active | 0.9%
